Results as given in US20160375006A1, “USES OF PARALOG-SELECTIVE INHIBITORS OF GSK3 KINASES” (priority 2012, published 2016).
Where two headings read alike, the source gives them in different places.

Legend:
BRSK2 = BRSK2 (Homo sapiens, UniProt Q8IWQ3)
Protocol: (§1) This was completed utilizing one of two assays depending on the kinase being examined.
(§2) A solution of IMAP binding reagent (IMAP Screening Express kit; Molecular Devices) (60 μL) was added to each well and incubated for 30 minutes.
(§3) A solution of termination buffer (QuickScout Screening assist MSA; Carna Biosciences) (60 μL) was added to each well. The entire reaction mixture was then applied to a LabChip3000 system (Caliper Life Science) and the product and substrate peptide peaks were separated and quantified.
(§4) The assay utilized was identical to that of the single point inhibitory activity determination (MSA) but run in dose response. […] A solution of termination buffer (QuickScout Screening assist MSA; Carna Biosciences) (60 μL) was added to each well. The entire reaction mixture was then applied to a LabChip3000 system (Caliper Life Science) and the product and substrate peptide peaks were separated and quantified.

MARK3 = MARK3 (Homo sapiens, UniProt P27448)
Protocol: as §1, §2, §3, §4

SGK3 = SGK3 (Homo sapiens, UniProt Q96BR1)
Protocol: as §1, §2, §3, §4

PDGFRα(V561D) = PDGFRα(V561D) (Homo sapiens, UniProt P16234, V561D)
Protocol: as §1, §2, §3, §4

CDK6/CycD3 = CDK6/CycD3 (Homo sapiens, UniProt Q00534)
Protocol: as §1, §2, §3, §4

KDR = KDR (Homo sapiens, UniProt P35968)
Protocol: as §1, §2, §3, §4

MOS_Cascade = MOS_Cascade (Homo sapiens, UniProt P00540)
Protocol: as §1, §2, §3, §4

JAK2 = JAK2 (Homo sapiens, UniProt O60674)
Protocol: as §1, §2, §3, §4

BRAF_Cascade = BRAF_Cascade (Homo sapiens, UniProt P15056)
Protocol: as §1, §2, §3, §4

CLK3 = CLK3 (Homo sapiens, UniProt P49761)
MRCKα = MRCKα (Homo sapiens, UniProt Q5VT25)
Protocol: as §1, §2, §3, §4

EPHA5 = EPHA5 (Homo sapiens, UniProt P54756)
Protocol: as §1, §2, §3, §4

HER4 = HER4 (Homo sapiens, UniProt Q15303)
Protocol: as §1, §2, §3

EGFR(L861Q) = EGFR(L861Q) (Homo sapiens, UniProt P00533, L861Q)
Protocol: as §1, §2, §3, §4

FGFR1(V561M) = FGFR1(V561M) (Homo sapiens, UniProt P11362, V561M)
Protocol: as §1, §2, §3, §4

EPHB2 = EPHB2 (Homo sapiens, UniProt P29323)
Protocol: as §1, §2, §3, §4

PKCθ = PKCθ (Homo sapiens, UniProt Q04759)
Protocol: as §1, §2, §3

AurB = AurB (Homo sapiens, UniProt Q96GD4)
Protocol: as §2, §3, §4

LYNb = LYNb (Homo sapiens, UniProt P07948)
Protocol: as §1, §2, §3, §4

AKT3 = AKT3 (Homo sapiens, UniProt Q9Y243)
Protocol: as §1, §2, §3, §4

ROCK1 = ROCK1 (Homo sapiens, UniProt Q13464)
Protocol: as §1, §2, §3, §4

ALK(F1174L) = ALK(F1174L) (Homo sapiens, UniProt Q9UM73, F1174L)
Protocol: as §1, §2, §3

ALK(L1196M) = ALK(L1196M) (Homo sapiens, UniProt Q9UM73, L1196M)
Protocol: as §1, §2, §3, §4

AMPKα1/β1/γ1 = AMPKα1/β1/γ1 (Homo sapiens, UniProt Q13131)
Description: as §1
The assay utilized was identical to that of the single point inhibitory activity determination (MSA) but run in dose response.

CK2α2/β = CK2α2/β (Homo sapiens, UniProt P19784)
Protocol: as §1, §2, §3, §4

JNK3 = JNK3 (Homo sapiens, UniProt P53779)
Protocol: as §1, §2, §3

MST3 = MST3 (Homo sapiens, UniProt Q9Y6E0)
Protocol: as §1, §2, §3, §4

RET(G691S) = RET(G691S) (Homo sapiens, UniProt P07949, G691S)
RET(G691S), sequence (P07949 29-1114 G691S): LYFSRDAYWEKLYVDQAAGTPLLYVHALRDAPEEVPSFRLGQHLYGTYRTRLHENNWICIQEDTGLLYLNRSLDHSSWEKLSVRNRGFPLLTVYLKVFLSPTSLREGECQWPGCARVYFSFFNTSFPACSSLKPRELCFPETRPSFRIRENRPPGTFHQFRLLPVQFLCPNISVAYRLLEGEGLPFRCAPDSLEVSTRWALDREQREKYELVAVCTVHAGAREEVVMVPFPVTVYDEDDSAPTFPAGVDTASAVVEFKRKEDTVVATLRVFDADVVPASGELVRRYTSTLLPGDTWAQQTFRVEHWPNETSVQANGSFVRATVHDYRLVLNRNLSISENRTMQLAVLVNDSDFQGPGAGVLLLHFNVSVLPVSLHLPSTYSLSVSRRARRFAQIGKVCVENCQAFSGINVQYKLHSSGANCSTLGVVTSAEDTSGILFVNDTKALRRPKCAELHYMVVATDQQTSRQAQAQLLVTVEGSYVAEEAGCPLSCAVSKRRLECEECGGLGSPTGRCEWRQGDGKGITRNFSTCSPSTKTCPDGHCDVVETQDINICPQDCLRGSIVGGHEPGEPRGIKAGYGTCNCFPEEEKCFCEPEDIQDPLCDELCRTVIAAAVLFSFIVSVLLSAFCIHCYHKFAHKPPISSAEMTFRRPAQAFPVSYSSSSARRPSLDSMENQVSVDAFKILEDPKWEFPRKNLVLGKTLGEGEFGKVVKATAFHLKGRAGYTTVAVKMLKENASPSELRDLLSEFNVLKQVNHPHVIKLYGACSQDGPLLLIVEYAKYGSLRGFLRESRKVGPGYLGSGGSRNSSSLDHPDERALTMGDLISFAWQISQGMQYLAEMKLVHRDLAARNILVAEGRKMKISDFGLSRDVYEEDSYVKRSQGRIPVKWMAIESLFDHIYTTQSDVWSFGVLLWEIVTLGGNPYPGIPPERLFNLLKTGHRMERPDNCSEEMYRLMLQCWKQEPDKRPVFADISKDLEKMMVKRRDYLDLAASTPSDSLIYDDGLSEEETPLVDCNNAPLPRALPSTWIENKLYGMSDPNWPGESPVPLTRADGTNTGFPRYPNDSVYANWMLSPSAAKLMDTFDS
Protocol: as §1, §2, §3

TNIK = TNIK (Homo sapiens, UniProt Q9UKE5)
Protocol: as §1, §2, §3, §4

WNK3 = WNK3 (Homo sapiens, UniProt Q9BYP7)
Protocol: as §1, §2, §3, §4

TSSK2 = TSSK2 (Homo sapiens, UniProt Q96PF2)
Protocol: as §1, §2, §3

MELK = target: T1, MELK (Homo sapiens, UniProt Q14680); assay: Carna kinase panel; format: biochemical
T1 construct: purchased Carna Biosciences
Protocol: as §1, §2, §3

EPHA4 = EPHA4 (Homo sapiens, UniProt P54764)
Protocol: as §1, §2, §3, §4

NDR1 = NDR1 (Homo sapiens, UniProt Q15208)
Protocol: as §1, §2, §3, §4

CDK3/CycE1 = CDK3/CycE1 (Homo sapiens, UniProt Q00526)
CDK3/CycE1, sequence (Q00526 whole entry): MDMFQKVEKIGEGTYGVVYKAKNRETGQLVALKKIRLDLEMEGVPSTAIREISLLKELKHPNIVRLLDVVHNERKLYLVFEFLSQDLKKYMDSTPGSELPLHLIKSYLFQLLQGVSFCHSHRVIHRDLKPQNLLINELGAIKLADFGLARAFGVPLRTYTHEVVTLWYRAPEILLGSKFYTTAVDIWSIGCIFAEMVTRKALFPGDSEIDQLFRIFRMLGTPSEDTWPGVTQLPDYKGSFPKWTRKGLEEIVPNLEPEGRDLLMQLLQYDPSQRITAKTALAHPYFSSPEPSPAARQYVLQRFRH
CDK3/CycE1, sequence (P24864 whole entry partner): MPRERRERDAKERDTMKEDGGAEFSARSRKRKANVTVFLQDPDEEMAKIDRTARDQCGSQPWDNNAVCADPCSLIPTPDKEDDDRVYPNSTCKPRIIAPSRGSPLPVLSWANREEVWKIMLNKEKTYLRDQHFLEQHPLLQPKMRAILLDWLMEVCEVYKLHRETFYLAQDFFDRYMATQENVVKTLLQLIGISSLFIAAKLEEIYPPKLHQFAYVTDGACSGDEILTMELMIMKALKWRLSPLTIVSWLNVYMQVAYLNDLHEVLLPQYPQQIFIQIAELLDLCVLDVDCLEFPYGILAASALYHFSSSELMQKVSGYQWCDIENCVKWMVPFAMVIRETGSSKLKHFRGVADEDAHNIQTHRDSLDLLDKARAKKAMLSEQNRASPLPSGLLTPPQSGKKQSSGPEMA
Protocol: as §1, §2, §3, §4

MARK1 = MARK1 (Homo sapiens, UniProt Q9P0L2)
Protocol: as §1, §2, §3, §4

SLK = SLK (Homo sapiens, UniProt Q9H2G2)
Protocol: as §1, §2, §3, §4

HIPK1 = HIPK1 (Homo sapiens, UniProt Q86Z02)
HIPK1, sequence (Q86Z02 whole entry): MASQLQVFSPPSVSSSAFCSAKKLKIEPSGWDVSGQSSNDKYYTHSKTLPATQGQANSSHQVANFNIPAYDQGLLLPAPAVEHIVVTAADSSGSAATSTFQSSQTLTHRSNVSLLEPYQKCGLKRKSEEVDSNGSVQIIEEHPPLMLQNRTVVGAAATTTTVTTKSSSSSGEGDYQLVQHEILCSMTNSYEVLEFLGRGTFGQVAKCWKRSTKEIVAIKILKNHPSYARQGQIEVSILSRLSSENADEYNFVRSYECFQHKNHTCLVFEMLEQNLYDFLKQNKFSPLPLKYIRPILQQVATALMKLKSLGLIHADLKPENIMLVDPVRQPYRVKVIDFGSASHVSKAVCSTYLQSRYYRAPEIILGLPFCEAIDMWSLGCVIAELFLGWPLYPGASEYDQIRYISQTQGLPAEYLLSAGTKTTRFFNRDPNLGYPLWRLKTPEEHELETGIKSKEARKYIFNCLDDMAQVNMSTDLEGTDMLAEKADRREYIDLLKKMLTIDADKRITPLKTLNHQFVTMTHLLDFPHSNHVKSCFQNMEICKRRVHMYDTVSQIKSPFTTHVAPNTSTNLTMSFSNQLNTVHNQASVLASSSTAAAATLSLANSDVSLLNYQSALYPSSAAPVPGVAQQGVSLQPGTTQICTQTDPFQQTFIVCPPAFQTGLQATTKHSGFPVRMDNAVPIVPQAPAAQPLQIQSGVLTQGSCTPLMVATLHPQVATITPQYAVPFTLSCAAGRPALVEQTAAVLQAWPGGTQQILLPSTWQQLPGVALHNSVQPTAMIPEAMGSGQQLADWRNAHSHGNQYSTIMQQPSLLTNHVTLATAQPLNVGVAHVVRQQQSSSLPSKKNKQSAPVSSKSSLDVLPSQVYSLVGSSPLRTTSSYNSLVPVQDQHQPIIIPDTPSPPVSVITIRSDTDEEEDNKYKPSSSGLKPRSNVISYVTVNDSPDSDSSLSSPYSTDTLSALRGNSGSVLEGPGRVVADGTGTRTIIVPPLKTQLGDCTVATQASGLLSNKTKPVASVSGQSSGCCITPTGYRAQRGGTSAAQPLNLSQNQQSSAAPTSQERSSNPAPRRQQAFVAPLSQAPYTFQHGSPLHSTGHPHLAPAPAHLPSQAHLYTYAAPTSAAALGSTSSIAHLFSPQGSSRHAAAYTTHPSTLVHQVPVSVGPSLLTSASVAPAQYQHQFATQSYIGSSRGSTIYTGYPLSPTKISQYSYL
Protocol: as §1, §2, §3

CDK4/CycD3 = CDK4/CycD3 (Homo sapiens, UniProt P11802)
CDK4/CycD3, sequence (P11802 whole entry): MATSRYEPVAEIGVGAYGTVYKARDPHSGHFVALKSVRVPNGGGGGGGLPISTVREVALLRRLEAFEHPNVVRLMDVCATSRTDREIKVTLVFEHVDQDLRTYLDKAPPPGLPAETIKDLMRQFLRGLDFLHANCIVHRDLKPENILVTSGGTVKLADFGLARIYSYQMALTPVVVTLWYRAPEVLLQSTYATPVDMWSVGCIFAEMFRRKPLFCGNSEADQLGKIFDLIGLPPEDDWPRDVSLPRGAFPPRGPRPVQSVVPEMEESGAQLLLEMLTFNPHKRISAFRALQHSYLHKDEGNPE
CDK4/CycD3, sequence (P30281 whole entry partner): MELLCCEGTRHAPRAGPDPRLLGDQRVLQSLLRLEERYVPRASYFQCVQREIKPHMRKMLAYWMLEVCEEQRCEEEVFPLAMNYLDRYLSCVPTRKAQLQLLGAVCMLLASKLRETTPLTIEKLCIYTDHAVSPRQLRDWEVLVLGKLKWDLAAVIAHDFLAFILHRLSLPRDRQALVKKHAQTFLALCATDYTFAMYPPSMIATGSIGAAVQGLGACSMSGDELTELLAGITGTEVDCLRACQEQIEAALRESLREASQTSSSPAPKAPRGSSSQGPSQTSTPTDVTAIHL
Protocol: as §1, §2, §3

CDK6/CycD3, sequence (Q00534 whole entry): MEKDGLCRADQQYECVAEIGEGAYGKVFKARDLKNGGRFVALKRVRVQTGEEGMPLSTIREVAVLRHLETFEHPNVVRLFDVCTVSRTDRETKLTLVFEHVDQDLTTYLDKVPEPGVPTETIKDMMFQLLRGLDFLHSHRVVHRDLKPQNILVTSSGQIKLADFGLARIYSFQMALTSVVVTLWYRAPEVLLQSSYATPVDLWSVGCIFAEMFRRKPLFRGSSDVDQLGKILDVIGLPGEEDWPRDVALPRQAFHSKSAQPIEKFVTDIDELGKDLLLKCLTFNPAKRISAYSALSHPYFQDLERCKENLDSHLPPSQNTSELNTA
CDK6/CycD3, sequence (P30281 whole entry partner): as the sequence (P30281 whole entry partner) above
PDGFRα(V561D), sequence (P16234 24-1089 V561D): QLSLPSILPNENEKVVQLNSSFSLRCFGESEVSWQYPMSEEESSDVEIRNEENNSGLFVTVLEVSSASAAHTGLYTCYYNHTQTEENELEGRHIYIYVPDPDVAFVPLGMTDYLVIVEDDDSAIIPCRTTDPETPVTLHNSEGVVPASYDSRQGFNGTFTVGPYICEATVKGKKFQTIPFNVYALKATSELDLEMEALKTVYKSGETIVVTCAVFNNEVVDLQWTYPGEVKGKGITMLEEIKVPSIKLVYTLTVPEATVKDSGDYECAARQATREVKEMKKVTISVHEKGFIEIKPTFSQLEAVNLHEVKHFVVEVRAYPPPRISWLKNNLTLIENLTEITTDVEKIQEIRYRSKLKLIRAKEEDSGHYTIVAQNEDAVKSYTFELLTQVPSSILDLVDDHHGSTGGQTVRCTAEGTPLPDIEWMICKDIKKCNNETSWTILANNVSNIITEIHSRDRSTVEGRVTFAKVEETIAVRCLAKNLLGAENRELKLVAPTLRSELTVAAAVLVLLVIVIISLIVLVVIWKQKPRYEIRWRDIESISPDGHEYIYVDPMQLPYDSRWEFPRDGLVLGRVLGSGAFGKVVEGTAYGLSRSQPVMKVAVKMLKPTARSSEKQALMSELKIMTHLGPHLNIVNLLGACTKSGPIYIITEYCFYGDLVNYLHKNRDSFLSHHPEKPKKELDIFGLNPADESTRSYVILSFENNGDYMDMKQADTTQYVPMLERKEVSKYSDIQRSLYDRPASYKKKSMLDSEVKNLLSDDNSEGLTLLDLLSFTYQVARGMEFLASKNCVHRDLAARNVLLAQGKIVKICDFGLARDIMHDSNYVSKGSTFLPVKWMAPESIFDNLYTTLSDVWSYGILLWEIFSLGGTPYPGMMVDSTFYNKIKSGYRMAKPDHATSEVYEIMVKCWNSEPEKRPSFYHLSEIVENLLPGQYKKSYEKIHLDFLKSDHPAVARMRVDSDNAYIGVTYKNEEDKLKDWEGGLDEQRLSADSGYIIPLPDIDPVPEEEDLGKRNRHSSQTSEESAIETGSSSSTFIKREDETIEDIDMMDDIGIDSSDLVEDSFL

Compound: CC[C@@]1(c2ccccc2)C2=C(CC(C)(C)CC2=O)Nc2n[nH]cc21 [BRD0705]
- % Inhibition at 10 μM (BRSK2): 1.8%
- % Inhibition at 10 μM (MARK3): −5.3%
- % Inhibition at 10 μM (SGK3): −1.8%
- % Inhibition at 10 μM (PDGFRα(V561D)): −3.7%
- % Inhibition at 10 μM (CDK6/CycD3; CDK6/CycD3): −0.5%
- % Inhibition at 10 μM (KDR): −4.8%
- % Inhibition at 10 μM (MOS_Cascade): −1.0%
- % Inhibition at 10 μM (JAK2): −0.5%
- % Inhibition at 10 μM (BRAF_Cascade): 7.8%
- % Inhibition at 10 μM (CLK3): −1.5%
- % Inhibition at 10 μM (MRCKα): −3.8%
- % Inhibition at 10 μM (EPHA5): 12.7%
- % Inhibition at 10 μM (HER4): 1.3%
- % Inhibition at 10 μM (EGFR(L861Q)): −1.8%
- % Inhibition at 10 μM (FGFR1(V561M)): −3.2%
- % Inhibition at 10 μM (EPHB2): 6.5%
- % Inhibition at 10 μM (PKCθ): −12.0%
- % Inhibition at 10 μM (AurB): −2.8%
- % Inhibition at 10 μM (LYNb): 2.2%
- % Inhibition at 10 μM (AKT3): −8.3%
- % Inhibition at 10 μM (ROCK1): −2.0%
- % Inhibition at 10 μM (ALK(F1174L)): 1.7%
- % Inhibition at 10 μM (ALK(L1196M)): 0.4%
- % Inhibition at 10 μM (AMPKα1/β1/γ1): −4.1%
- % Inhibition at 10 μM (CK2α2/β): −7.0%
- % Inhibition at 10 μM (JNK3): −3.4%
- % Inhibition at 10 μM (MST3): 11.7%
- % Inhibition at 10 μM (RET(G691S)): −5.6%
- % Inhibition at 10 μM (TNIK): 6.8%
- % Inhibition at 10 μM (WNK3): −3.7%
- % Inhibition at 10 μM (TSSK2): −3.4%
- % Inhibition at 10 μM (MELK): −5.6%
- % Inhibition at 10 μM (EPHA4): 4.0%
- % Inhibition at 10 μM (NDR1): −4.8%
- % Inhibition at 10 μM (CDK3/CycE1; CDK3/CycE1): 52.8%
- IC50 (CDK3/CycE1; read-out: IC50 CDK3/CycE1): 9.74 µM
- % Inhibition at 10 μM (MARK1): 3.1%
- % Inhibition at 10 μM (SLK): −10.7%
- % Inhibition at 10 μM (HIPK1): −6.5%
- % Inhibition at 10 μM (CDK4/CycD3): −9.1%

Compound: CC(C)(C)Cc1[nH]nc2c1[C@](C)(c1ccccc1)C1=C(CC(C)(C)CC1=O)N2 [BRD3731]
- % Inhibition 10 μM (BRSK2; 10 μM): −2.9%
- % Inhibition 10 μM (MARK3; 10 μM): −2.1%
- % Inhibition 10 μM (SGK3; 10 μM): −5.2%
- % Inhibition 10 μM (PDGFRα(V561D); 10 μM): 6.6%
- IC50 (CDK6/CycD3; CDK6/CycD3): > 10 µM
- % Inhibition 10 μM (CDK6/CycD3; CDK6/CycD3, 10 μM): 28.3%
- Fold Selectivity (CDK6/CycD3; IC50 CDK6/CycD3 / IC50 GSK3β): >370 fold
- % Inhibition 10 μM (KDR; 10 μM): 7.1%
- % Inhibition 10 μM (MOS_Cascade; 10 μM): −9.5%
- % Inhibition 10 μM (JAK2; 10 μM): 3.0%
- % Inhibition 10 μM (BRAF_Cascade; 10 μM): 8.9%
- % Inhibition 10 μM (CLK3; 10 μM): 4.0%
- % Inhibition 10 μM (MRCKα; 10 μM): 4.3%
- % Inhibition 10 μM (EPHA5; 10 μM): −5.5%
- % Inhibition 10 μM (HER4; 10 μM): 6.5%
- % Inhibition 10 μM (EGFR(L861Q); 10 μM): 2.7%
- % Inhibition 10 μM (FGFR1(V561M); 10 μM): 0.3%
- % Inhibition 10 μM (EPHB2; 10 μM): 6.4%
- % Inhibition 10 μM (PKCθ; 10 μM): 12.1%
- % Inhibition 10 μM (AurB; 10 μM): −2.3%
- % Inhibition 10 μM (LYNb; 10 μM): 2.9%
- % Inhibition 10 μM (AKT3; 10 μM): −6.4%
- % Inhibition 10 μM (ROCK1; 10 μM): 0.8%
- % Inhibition 10 μM (ALK(F1174L); 10 μM): 0.2%
- % Inhibition 10 μM (ALK(L1196M); 10 μM): 3.6%
- % Inhibition 10 μM (AMPKα1/β1/γ1; 10 μM): 11.2%
- % Inhibition 10 μM (CK2α2/β; 10 μM): −2.3%
- % Inhibition 10 μM (JNK3; 10 μM): −2.6%
- % Inhibition 10 μM (MST3; 10 μM): 7.4%
- % Inhibition 10 μM (RET(G691S); 10 μM): −2.3%
- % Inhibition 10 μM (TNIK; 10 μM): −1.2%
- % Inhibition 10 μM (WNK3; 10 μM): 2.1%
- % Inhibition 10 μM (TSSK2; 10 μM): 3.8%
- % Inhibition 10 μM (MELK; 10 μM): 39.2%
- % Inhibition 10 μM (EPHA4; 10 μM): −2.7%
- % Inhibition 10 μM (NDR1; 10 μM): −3.7%
- IC50 (CDK3/CycE1; CDK3/CycE1): > 10 µM
- % Inhibition 10 μM (CDK3/CycE1; CDK3/CycE1, 10 μM): 29.2%
- Fold Selectivity (CDK3/CycE1; IC50 CDK3/CycE1 / IC50 GSK3β): >370 fold
- % Inhibition 10 μM (MARK1; 10 μM): 9.3%
- % Inhibition 10 μM (SLK; 10 μM): −1.8%
- % Inhibition 10 μM (HIPK1; 10 μM): 5.8%
- % Inhibition 10 μM (CDK4/CycD3; 10 μM): 18.1%
